The conditions of series [1]: cited from earlier work.
In the next series the test system is HCC70. The experiment in a line: Propidium iodide incorporation (Incucyte Zoom) in HCC70 cells with netrin-1 silencing. The class given is cell-based. Particulars: up to 24 hours. The protocol:
FIG. 10. Cell death assessment by combining netrin-1 silencing and Navitoclax. To assess cell death, Propidium iodide (PI) incorporation, normalized to cell confluence, was followed in real-time up to 24 hours by Incucyte Zoom technology for scramble (siCTRL), netrin-1 (siNet), scramble (siCTRL) and Navitoclax, netrin-1 (siNet) and Navitoclax.
In addition, breast cancer HCC70 were transfected with scramble (siCTRL) or netrin-1 (siNet) targeting siRNAs. 24 hours after transfection, cells were detached, plated again in 24-well plate and treated with 0.5 µM of the Bcl-2/Bcl-XL/Bcl-w inhibitor Navitoclax (Tse et al, Cancer Res, 2008; Shoemaker et al, Clin Cancer Res, 2008). To assess cell death, propidium iodide (PI) incorporation, normalized to cell confluence, was followed in real-time up to 24 hours by Incucyte Zoom technology.

For a further series, the system named is caspase-9. The experiment in a line: UNC5B-induced caspase-9 activity in HeLa UNC5B cells. Format: cell-based, Human. Particulars: Dox; 18 hours. The protocol:
FIG. 5. UNC5B-mediated Mcl-1 degradation induces MOMP and caspase-9 activation. (A): UNC5B over-expression triggers Mitochondrial Outer Membrane Permeabilization (MOMP) in a COMMD2/CRL3 complex-dependent manner. Hela cells were transfected with scramble (siCTRL), COMMD2 (siCOMMD2-1) or RBX1 (siRBX1-1) siRNAs. 24 hours after transfection, cells were treated with Dox and after further 18 hours mitochondrial depolarization quantified by 5′,6,6′-tetrachloro-1,1′,3,3′-tetraethylbenzimi-dazolylcarbocyanine iodide (JC-1) dye staining, using NucleoCounter NC3000 (n=3, **** p<0.0001, ordinary two-way ANOVA with Tukey's multiple comparisons test). Values are given as means±SEM. (B,C,D): Apoptotic cell death induced by UNC5B over-expression requires caspase-9. HeLa UNC5B cells were transfected with scramble (siCTRL) or caspase-9 (siCASP9) siRNAs and 24 hours later treated with the indicated concentrations of Dox. Propidium iodide (PI)-positive cells were assessed in real-time up to 48 hours using Incucyte Zoom instrument (C) (n=[…], Kolmogorov-Smirnov test). DNA fragmentation was assessed by FACS analysis (D) and caspase-3 was measured using caspase-3 fluorometric kit (E), both 18 hours after treatment (n=[…], **** p<0.0001, ordinary two-way ANOVA with Šidák's multiple comparisons test). Values are given as means±SEM. […] HeLa UNC5B cells were treated with Dox and 18 hours later caspase-9 and -8 activities were assessed by fluorometric kit, using specific substrates (n=3, ^nsp>0.05, *p<0.05, Mann-Whitney test, one-tailed). […] 24 hours later, cells were treated with Dox and caspase-9 activity was measured by fluorometric kit (n=3, **** p<0.0001, ordinary two-way ANOVA with Tukey's multiple comparisons test). […] 18 hours after treatment, caspase-9 activity was assessed with the fluorometric kit (n=5, *p<0.05, ** p<0.01, *** p<0.001, **** p<0.0001, ordinary two-way ANOVA with Tukey's multiple comparisons test). […] Cells were then treated with Dox and Mcl-1 protein was evaluated by western blot. […]

The test system of another series is UNC5B-induced cell death. The experiment in a line: UNC5B-induced cell death under inhibition of neddylation. Format: cell-based.

`Cc1c(-c2c(-c3ccc(F)o3)sc3ncnc(O[C@H](Cc4ccccc4OCc4ccnn4CC(F)(F)F)C(=O)O)c23)ccc(OCCN2CCN(C)CC2)c1Cl` [S63845]: the tolerability entry in series [1] (Brennan et al., 2018) is given as “overall good tolerability”. For the same compound, in series [1] (during treatment (Brennan et al., 2018)), the B-cell population entry is on record as “decrease in the B-cell population”.

For the compound `CC1(C)CCC(c2ccc(Cl)cc2)=C(CN2CCN(c3ccc(C(=O)NS(=O)(=O)c4ccc(N[C@H](CCN5CCOCC5)CSc5ccccc5)c(S(=O)(=O)C(F)(F)F)c4)cc3)CC2)C1` [Navitoclax], the “cell death induction (PI incorporation)” value in the series on HCC70 (0.5 µM alone (siCTRL)) is “slight effect on cell death induction”; in the series with HCC70 (0.5 µM combined with netrin-1 silencing (siNet)), “quickly and strongly triggered apoptosis”.

As to `NS(=O)(=O)OC[C@@H]1C[C@@H](n2ccc3c(N[C@H]4CCc5ccccc54)ncnc32)C[C@@H]1O` [pevonedistat], the “UNC5B-induced caspase-9 activation” value with caspase-9 is on record as “sufficient to prevent UNC5B-induced caspase-9 activation”. Moreover, the UNC5B-induced cell death entry with UNC5B-induced cell death was “prevented UNC5B-induced cell death”.
